# Reference: patent US5639775A, “4-[4'-piperodinyl or 3'-pirrolidinyl] substituted imidazoles as H3 -receptor antagonists and therapeutic uses thereof” (The University of Toledo, priority 1994, dated 1997)
# Like-named read-outs stand apart in the source and are kept apart here.
# Assays:
# [1] = test system: male albino CF-1 mice; assay: behavioral effects: sleep induced by (R)α-methylhistamine in mice; type: in vivo
# Method: The overall strategy to show central nervous system antagonist activity was to challenge effects of the agonist (R)α-methylhistamine. Therefore, the first objective was to establish a dose response curve for behavioral effects of (R)α-methylhistamine. […] Saline or (R)α-methylhistamine in saline was injected i.p. in a volume≤0.4 ml. […] Animals were scored for the presence (1) or absence (0) of the behavior and the results were reported as the accumulated score for a 30 minute period (maximum score=9).
# To assess the effects of antagonists, they were administered with the (R)α-methylhistamine in saline.
# [2] = toxicity observed in all testing to date; type: in vivo; conditions: even at high doses
# [3] = test system: Glycine; assay: NOVASCREEN receptor selectivity assay (excitatory amino acids); type: binding; conditions: 10^-5 M
# From the text: (§1) Bolded values represent inhibition of fifty percent or greater.
# [4] = test system: H3 receptors in the cortex; assay: blood-brain barrier penetration by ex vivo binding of [3H]-Nα-methylhistamine to cortical homogenate of injected rats; type: in vivo, rat
# Method: Blood-brain barrier penetration in rats was assessed by an ex vivo binding procedure. Young adult male Long-Evans rats were injected i.p. with saline or H3 antagonists in saline. At various times after injection animals were sacrificed, the cortex was removed, homogenized in 50 mM Na/K-phosphate buffer, pH 7.4, and the binding of 1 nM [^3 H]-N^[…] -methylhistamine was measured using 400 μg protein of the homogenate. Nonspecific binding was accounted for by the inclusion of excess thioperamide in some samples. Under these conditions, the binding was approximately 90% specific.
# [5] = test system: Glycine; assay: NOVASCREEN receptor selectivity assay (inhibitory amino acids); type: binding; conditions: 10^-5 M
# From the text: as §1
# [6] = type: binding; conditions: 10^-5 M; w-Conotoxin reference
# [7] = test system: Calcium; assay: NOVASCREEN receptor selectivity assay (channel proteins, Nifedipine reference); type: binding; conditions: 10^-5 M
# From the text: as §1
# [8] = target: T1, histamine H3 receptor (Rattus norvegicus, UniProt Q9QYN8); assay: inhibition of binding of [3H]-N-alpha-methylhistamine to rat brain membranes; conditions: for IC50: rat brain membranes, 3HNα-methylhistamine as radioligand
# T1 construct: from tissue
# T1 sequence (Q9QYN8 whole entry): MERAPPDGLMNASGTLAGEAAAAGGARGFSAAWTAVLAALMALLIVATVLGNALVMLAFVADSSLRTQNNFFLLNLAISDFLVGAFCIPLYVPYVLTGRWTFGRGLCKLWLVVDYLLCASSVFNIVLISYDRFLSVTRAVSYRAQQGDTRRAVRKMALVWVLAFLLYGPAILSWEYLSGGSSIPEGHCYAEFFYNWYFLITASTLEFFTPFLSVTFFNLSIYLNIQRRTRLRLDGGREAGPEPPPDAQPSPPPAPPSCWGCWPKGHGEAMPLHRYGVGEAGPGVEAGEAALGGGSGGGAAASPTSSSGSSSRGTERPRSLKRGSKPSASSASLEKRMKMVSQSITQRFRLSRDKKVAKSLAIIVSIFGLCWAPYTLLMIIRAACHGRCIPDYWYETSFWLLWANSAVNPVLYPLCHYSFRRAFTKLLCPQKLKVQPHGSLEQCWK
# Method: A series of compounds were prepared and tested for their histamine H3 receptor antagonist activity. The antagonist activity of the compounds was detected by observing inhibition of (^3 H)-N-(alpha)methylhistamine activity on rat brain membranes.
# The various compounds were tested for the ability to bind to the histamine H3 receptor. A binding assay in a rat brain membrane preparation, based on inhibition of binding of [^3 H]-N-alpha-methylhistamine using excess unlabeled alpha-methylhistamine to account for nonspecifc binding, was developed.
# [9] = target: Kainate; conditions: reference compound; cited from earlier work
# [10] = target: Glycine; conditions: read-out: Reference Ki; reference compound; inhibitory; cited from earlier work
# [11] = test system: rats; conditions: cited from earlier work
# [12] = test system: dogs; conditions: high dose, repeated dose; cited from earlier work
# [13] = 2, 5, and 10 mg/kg i.p., 15 min after injection
smiles,measurement,setting,value
"C[C@@H](N)Cc1c[nH]cn1 [(R)α-methylhistamine, reference compound]",effect on sleeping,"[1]; i.p., one hour after injection, also evident at 30 minutes",dose-dependent (range of 15 to 35 mg/kg) increase in sleeping
"O=C(CCCCC1CCCCC1)N1CCC(c2c[nH]cn2)CC1 [Compound 1, 4-(1-Cyclohexylvaleroyl-4-Piperidyl) 1H-Imidazole]",toxicity observed,[2],no toxicity
same,Initial Percent Inhibition (Average; N = 2),[3],1.8%
same,penetration of the blood-brain barrier,"[4]; 50 and 70 mg/kg i.p., one hour after injection",penetrates the blood-brain barrier
same,penetration of the blood-brain barrier compared with thioperamide,[4]; taking into account the difference in affinity,at least as well as thioperamide
same,effect on sleep induced by R(-)-α-methylhistamine,[1]; 25 mg/kg (R)α-methylhistamine,inhibited the soporific effect
same,effectiveness as an H3-receptor antagonist in vivo,[1]; in vivo assays,effective as an H3 -receptor antagonist
same,Initial Percent Inhibition (Average; N = 2),[5],17.4%
same,Initial Percent Inhibition (Average; N = 2),[6],1.9%
same,Initial Percent Inhibition (Average; N = 2),[7],8.1%
O=C(Cc1ccccc1)N1CCC(c2c[nH]cn2)CC1 [Compound 4],IC50,"[8]; Table I first part, read-out: IC50",1400 ± 437 nM
O=C(CC12CC3CC(CC(C3)C1)C2)N1CCC(c2cnc[nH]2)CC1 [Compound 8],IC50,[8]; Table I second part,inactive
O=C(C(C1CCCCC1)C1CCCCC1)N1CCC(c2cnc[nH]2)CC1 [Compound 9],IC50,[8]; Table I second part,inactive
CC(C)(C)C(=O)N1CCC(c2c[nH]cn2)CC1 [Compound 14],IC50,[8]; Table I second part,inactive
O=C(C1CCCCC1)N1CCC(c2c[nH]cn2)CC1 [Compound 41],IC50,[8]; Table I first part,inactive
Cn1cnc(C2CCN(C(=O)c3ccccc3)CC2)c1 [Compound 42],IC50,[8]; Table I first part,inactive
O=C(c1ccccc1)N1CCC(c2cn(C(=O)c3ccccc3)cn2)CC1 [Compound 43],IC50,[8]; Table I first part,inactive
CC(C)(C)C(=O)N1CCC(c2cn(C(=O)C(C)(C)C)cn2)CC1 [Compound 44],IC50,[8]; Table I first part,inactive
CC(C)(C)OC(=O)N1CCC(c2cn(C(=O)OC(C)(C)C)cn2)CC1 [Compound 45],IC50,[8]; Table I first part,inactive
O=C(c1ccccc1)N1CCC(c2cn(Cc3ccccc3)cn2)CC1 [Compound 46],IC50,[8]; Table I first part,inactive
N#CN=C(Oc1ccccc1)N1CCC(c2c[nH]cn2)CC1 [Compound 47],binding to the H3-receptor (in words),[8],ineffective
N#CN=C(NC1CCCCC1)N1CCC(c2c[nH]cn2)CC1 [Compound 48],binding to the H3-receptor (in words),[8],ineffective
same,IC50,[8]; Table I first part,inactive
N#CN=C(Nc1ccc(-c2c[nH]cn2)cc1)NC1CCCCC1 [Compound 50],binding to the H3-receptor (in words),[8],ineffective
same,IC50,[8]; Table I second part,inactive
C=C(C)[C@H]1CN[C@H](C(=O)O)[C@H]1CC(=O)O [Kainic Acid],Ki,[9],24.9 nM
O=C1C[C@@H]2OCC=C3CN4CC[C@]56c7ccccc7N1[C@H]5[C@H]2[C@H]3C[C@H]46 [Strychinine Nitrate],Ki,[10],33.5 nM
"S=C(NC1CCCCC1)N1CCC(c2cnc[nH]2)CC1 [Thioperamide, reference compound]",binding of [3H]-Nα-methylhistamine to H3 receptors in the cortex,[4]; [13],decreased the binding
same,penetration of the blood-brain barrier,[4]; [13],able to penetrate the blood-brain barrier
same,dose needed in vivo to inhibit histamine release from the brain,[11],relatively high doses are required
same,effect on sleep induced by R(-)-α-methylhistamine,[1]; 30 mg/kg (R)α-methylhistamine,inhibit the soporific effect
same,behavior with antagonist alone,[1]; in the absence of the α-methylhistamine H3 receptor agonist,"very active, exhibiting normal behaviors"
O=C(CCCCC1CCCCC1)N1CCC(c2c[nH]cn2)CC1 [compound 2016],effect on soporific effect of R(-)-alphamethylhistamine,"[1]; mice, both drugs administered peripherally",reverses the soporific effect
C/N=C(\S)NCCSCc1[nH]cnc1C [metiamide],proportion of dogs that died acutely with pulmonary edema and pleural effusion,[12],< 10%
